Values quoted from earlier work in patent publication US11497742B1, “Pharmaceutical composition for the treatment of Covid-19 infection” (priority 2021, dated 2022).

Key:
SARS-CoV-2 infection = settings: interim analysis, 775 patients, oral
COVID-19 Mpro = COVID-19 Mpro (Severe acute respiratory syndrome coronavirus 2, UniProt P0DTD1); settings: Hussein and Elkhair 2021

Row | Molecule | reduced the risk of hospitalization or death (SARS-CoV-2 infection) | inhibition of COVID-19 Mpro (molecular docking, low binding energies) (COVID-19 Mpro)
1 | CC(C)C(=O)OC[C@H]1O[C@@H](n2ccc(NO)nc2=O)[C@H](O)[C@@H]1O [Molnupiravir] | approximately 50% | 
2 | Zn(CQ)Cl2H2O |  | potent inhibitors
3 | Zn(HCQ)Cl2H2O |  | potent inhibitors
